The source of these data is patent US7241753B2, “Method of treatment of prostate cancer” (priority 2000, dated 2007).

Assay [1] relates to Dunning AT-1 hormone-refractory prostate cancer tumor. An excerpt: (§1) The Dunning prostate cancer cell-line, AT-1, is a completely hormone-refractory tumor. It lacks measurable quantities of receptors for androgens as well as estrogens. As a result, the clinical behavior of this tumor is not influenced by the presence or absence of sex steroids. The doubling time of the tumor is 2.5 days, which makes it one of the most […] of all hormone-refractory Dunning tumors. It has a low (less than 5%) tendency for metastasis. The Dunning tumors are suitable for evaluating immunologic experiments with prostate cancer as they grow in immunocompetent animals.
(§2) Biopsies from excised tumors where investigated microscopically using the TUNEL-technique. Tumor biopsies were investigated with immuno-cytochemistry and antibodies for macrophages and T-lymphocytes.
In the second experiment, rats were treated as in experiment 1, but tumor size was not allowed to exceed 10 mm in diameter. This experiment was made to further evaluate the influence of tumor size on the outcome of treatment.
Animals were divided in four groups:
(§3) Group 4 animals served as tumor-bearing controls.
After animals had been sacrificed, freshly frozen tumor samples were examined for apoptosis using the TUNEL technique.

Another assay concerns myeloid cell line. As to conditions: in vitro; cited from earlier work.
Another assay has as its system breast cancer cell lines. As to conditions: in vitro; cited from earlier work.
Assay [2] deals with Dunning AT-1 hormone-refractory prostate cancer tumor. As to the kind of experiment: Experiment 1: Dunning AT-1 tumor transplanted subcutaneously in rats, tumors about 17 mm at start of treatment. It counts as in vivo, Copenhagen-Fisher male rat.
Text: as §1, §2
In this experiment Dunning AT-1 tumor was passed through two Copenhagen-Fisher male rats and then transplanted in a single piece, approximately 10 mm^3, which was placed subcutaneously on a third Copenhagen-Fisher male rat's dorsal side. Tumors were allowed to grow to approximately 17 mm in diameter before treatment started. Four groups of six rats each were used.
Freund's complete adjuvant is used to potentiate immune reactivity and to trigger a T-cell response.
Group 3 animals received only complete Freund's adjuvant, 0.1 mL intra-tumorally.
as §3
Tumors were measured by slide caliper at the onset of experiment. This was repeated at the end of experiment when animals were sacrificed, tumors excised, and tumor weight was noted.

[3] abbreviates: versus control, end of experiment 1.

Like-named read-outs stand apart in the source and are kept apart here.

`C[C@]12CC[C@H]3[C@@H](CC=C4C[C@@H](O)CC[C@@]43C)[C@@H]1CC[C@H]2O` [αAED, Δ5-androstene-3-β, 17α-diol]: in assay [1] (single injection of 10 mg αAED), the “time for which tumor growth was arrested following treatment” value was “at least 96 hours”. For the same compound, the apoptotic effect result with myeloid cell line and in the assay with breast cancer cell lines was “apoptotic effect” in each case.

As to `C[C@]12CC[C@H]3[C@@H](CC=C4C[C@@H](O)CC[C@@]43C)[C@@H]1CC[C@@H]2O` [βAED, Δ5-androstene-3-β, 17β-diol], in assay [2] (end of experiment 1), the mean tumor weight is recorded as 11.6 g and the median tumor weight was found to be 10 g. Moreover, the “Tumor Diameter (mm)” value in assay [2] (end of experiment 1 (sacrifice after 3 weeks)) stood at 11.6 mm. Also, in assay [2] (setting [3]), the “Decrease in Tumor Size (mm)” value was 7.6 mm and the “Percent Reduction” value was 39.58%. Further, in assay [1] (single injection of 80 mg βAED, control 5.8 g), the mean tumor weight was 2.9 g. Also, the “tumor growth observed macroscopically” value in assay [1] (single injection, αAED animals sacrificed after 96 hours) is reported as “clear retardation of tumor growth”.
